From the supplement of paper PMC12463676, “Small-molecule dissolution of stress granules by redox modulation benefits ALS models” (Nature Chemical Biology, 2025)

Experiments:
[1] = compound: NC(=O)CCCCC1CCSS1 [lipoamide]; assay: thermal stability z-score vs DMSO; higher = more thermally stabilized by treatment; settings: HeLa, lipoamide concentration 100 µM
Description: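 Cellular thermal proteome profiling in HeLa cells. Cells were treated with 100 µM lipoamide for 1 h, with or without 1 mM arsenate for a further 1 h, then heated to ten temperatures (37-66.3 °C), and soluble protein was quantified by TMT mass spectrometry relative to 0.1% DMSO controls. The thermal stability score (sum of log2 fold changes minus the abundance score) was transformed to a z-score; mean of n = 3 experiments.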

[2] = compound: O=[As]([O-])(O)O.[K+] [potassium arsenate]; assay: as above; settings: HeLa; arsenate concentration 1 mM
Description: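 Cellular thermal proteome profiling in HeLa cells treated with 1 mM arsenate for 1 h (DMSO pretreatment), heated to ten temperatures (37-66.3 °C). Soluble protein was quantified by TMT mass spectrometry relative to DMSO controls; the thermal stability score was transformed to a z-score; mean of n = 3 experiments.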

[3] = arsenate co-treatment: 1 mM arsenate 1 h
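Also: each temperature applied for 3 min, abundance score taken as mean log2 fold change at the two lowest temperatures, z-score obtained by mean subtraction and division by SD.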

UniProt O14795, sequence (O14795 whole entry): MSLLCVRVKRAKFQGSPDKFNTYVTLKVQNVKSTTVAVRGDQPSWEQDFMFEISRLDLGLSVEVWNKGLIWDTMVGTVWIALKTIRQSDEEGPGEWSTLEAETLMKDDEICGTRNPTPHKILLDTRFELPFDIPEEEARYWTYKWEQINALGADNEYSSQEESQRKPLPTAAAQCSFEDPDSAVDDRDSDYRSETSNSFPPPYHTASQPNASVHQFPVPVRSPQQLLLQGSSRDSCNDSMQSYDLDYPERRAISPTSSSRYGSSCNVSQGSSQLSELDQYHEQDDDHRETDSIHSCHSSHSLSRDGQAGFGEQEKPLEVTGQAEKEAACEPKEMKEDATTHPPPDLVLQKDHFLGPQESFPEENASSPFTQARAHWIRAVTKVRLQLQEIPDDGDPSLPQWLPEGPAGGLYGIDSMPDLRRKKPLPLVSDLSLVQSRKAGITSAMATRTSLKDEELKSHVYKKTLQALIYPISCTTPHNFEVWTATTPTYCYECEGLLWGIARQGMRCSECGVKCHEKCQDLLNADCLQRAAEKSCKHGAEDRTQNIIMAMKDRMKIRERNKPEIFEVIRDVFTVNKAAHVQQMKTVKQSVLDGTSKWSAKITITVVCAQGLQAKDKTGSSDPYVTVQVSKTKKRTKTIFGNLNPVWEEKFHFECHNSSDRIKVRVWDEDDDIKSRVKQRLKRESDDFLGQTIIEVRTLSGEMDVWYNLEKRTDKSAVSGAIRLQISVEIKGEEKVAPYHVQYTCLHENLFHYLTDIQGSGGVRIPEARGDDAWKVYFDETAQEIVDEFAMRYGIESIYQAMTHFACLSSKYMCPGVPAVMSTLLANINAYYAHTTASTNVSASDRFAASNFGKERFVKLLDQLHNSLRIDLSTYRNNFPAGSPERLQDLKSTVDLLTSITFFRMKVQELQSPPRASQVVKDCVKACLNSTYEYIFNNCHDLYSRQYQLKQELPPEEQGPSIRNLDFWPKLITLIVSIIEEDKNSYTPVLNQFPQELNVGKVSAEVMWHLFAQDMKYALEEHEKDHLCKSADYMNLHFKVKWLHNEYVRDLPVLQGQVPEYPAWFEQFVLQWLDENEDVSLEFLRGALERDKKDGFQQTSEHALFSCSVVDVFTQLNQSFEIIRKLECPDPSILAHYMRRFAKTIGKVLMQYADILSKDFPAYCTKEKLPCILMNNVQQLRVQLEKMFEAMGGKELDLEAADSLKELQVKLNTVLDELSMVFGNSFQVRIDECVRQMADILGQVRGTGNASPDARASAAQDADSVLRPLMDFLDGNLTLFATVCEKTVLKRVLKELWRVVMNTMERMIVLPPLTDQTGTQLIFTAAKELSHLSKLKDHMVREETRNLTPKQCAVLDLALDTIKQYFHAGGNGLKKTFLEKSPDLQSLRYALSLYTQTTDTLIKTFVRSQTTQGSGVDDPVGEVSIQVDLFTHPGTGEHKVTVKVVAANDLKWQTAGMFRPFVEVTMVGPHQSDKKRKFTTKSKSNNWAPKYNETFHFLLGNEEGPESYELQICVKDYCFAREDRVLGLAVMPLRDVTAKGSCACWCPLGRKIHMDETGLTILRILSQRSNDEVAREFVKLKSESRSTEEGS
UniProt Q96RL1, sequence (Q96RL1 whole entry): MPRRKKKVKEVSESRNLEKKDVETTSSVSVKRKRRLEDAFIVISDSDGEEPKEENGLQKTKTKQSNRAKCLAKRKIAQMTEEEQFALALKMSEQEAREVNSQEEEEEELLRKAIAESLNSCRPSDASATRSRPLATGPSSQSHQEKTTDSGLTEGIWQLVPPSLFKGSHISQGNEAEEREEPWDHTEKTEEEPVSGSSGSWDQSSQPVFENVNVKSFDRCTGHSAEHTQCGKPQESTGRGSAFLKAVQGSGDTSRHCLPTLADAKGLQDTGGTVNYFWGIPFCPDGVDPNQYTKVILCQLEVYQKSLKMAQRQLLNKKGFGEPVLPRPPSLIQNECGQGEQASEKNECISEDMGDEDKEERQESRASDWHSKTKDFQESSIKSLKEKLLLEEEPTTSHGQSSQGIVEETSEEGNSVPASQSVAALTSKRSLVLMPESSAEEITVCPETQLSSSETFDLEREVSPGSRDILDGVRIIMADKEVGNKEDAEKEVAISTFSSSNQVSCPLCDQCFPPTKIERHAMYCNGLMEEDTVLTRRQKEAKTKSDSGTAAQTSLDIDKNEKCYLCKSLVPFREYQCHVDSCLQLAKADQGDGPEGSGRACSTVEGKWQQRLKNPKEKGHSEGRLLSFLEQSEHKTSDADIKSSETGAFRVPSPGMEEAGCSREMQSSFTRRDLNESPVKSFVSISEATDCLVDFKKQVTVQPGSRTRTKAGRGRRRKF
UniProt P07919, sequence (P07919 whole entry): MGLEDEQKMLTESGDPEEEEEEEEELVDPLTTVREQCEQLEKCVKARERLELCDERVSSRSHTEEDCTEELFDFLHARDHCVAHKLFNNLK
UniProt P31930, sequence (P31930 whole entry): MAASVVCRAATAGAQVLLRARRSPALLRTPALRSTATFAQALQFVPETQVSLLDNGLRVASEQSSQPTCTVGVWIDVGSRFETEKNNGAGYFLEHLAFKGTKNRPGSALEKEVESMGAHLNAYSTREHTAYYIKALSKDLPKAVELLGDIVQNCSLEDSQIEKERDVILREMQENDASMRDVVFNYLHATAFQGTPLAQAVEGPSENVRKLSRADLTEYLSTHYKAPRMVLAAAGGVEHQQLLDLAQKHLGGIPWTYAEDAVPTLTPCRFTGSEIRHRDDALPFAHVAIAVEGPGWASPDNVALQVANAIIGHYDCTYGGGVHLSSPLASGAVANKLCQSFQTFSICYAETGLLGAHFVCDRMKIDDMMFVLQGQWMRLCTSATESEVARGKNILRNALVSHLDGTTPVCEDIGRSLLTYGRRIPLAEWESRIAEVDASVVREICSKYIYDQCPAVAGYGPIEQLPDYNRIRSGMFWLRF
UniProt Q9Y4E8, sequence (Q9Y4E8 whole entry): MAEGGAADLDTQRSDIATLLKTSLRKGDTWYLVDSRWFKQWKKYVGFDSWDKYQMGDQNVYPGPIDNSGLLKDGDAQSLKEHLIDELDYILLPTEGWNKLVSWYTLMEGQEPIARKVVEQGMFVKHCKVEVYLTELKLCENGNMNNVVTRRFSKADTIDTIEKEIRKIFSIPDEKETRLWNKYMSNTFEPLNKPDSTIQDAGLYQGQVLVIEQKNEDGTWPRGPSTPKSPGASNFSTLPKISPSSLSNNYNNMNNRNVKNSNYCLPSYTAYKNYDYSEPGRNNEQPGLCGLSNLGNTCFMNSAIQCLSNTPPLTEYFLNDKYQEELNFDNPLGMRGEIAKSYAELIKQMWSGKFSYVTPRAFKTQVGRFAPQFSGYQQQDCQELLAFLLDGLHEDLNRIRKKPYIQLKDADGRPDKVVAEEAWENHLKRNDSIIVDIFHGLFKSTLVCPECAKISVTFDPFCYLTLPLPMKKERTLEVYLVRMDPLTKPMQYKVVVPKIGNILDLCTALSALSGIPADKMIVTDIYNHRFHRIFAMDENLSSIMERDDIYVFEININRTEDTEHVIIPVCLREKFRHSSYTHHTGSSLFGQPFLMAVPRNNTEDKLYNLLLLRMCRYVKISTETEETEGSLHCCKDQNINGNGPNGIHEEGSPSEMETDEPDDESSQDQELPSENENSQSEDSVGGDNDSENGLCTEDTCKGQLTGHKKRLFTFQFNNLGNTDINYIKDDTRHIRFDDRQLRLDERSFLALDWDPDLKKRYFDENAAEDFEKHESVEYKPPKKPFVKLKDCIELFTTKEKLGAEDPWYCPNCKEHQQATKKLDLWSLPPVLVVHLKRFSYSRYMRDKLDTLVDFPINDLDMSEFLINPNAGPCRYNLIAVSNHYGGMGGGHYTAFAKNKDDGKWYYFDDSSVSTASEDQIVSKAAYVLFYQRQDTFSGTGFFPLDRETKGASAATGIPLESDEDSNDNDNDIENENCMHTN
UniProt Q92995, sequence (Q92995 whole entry): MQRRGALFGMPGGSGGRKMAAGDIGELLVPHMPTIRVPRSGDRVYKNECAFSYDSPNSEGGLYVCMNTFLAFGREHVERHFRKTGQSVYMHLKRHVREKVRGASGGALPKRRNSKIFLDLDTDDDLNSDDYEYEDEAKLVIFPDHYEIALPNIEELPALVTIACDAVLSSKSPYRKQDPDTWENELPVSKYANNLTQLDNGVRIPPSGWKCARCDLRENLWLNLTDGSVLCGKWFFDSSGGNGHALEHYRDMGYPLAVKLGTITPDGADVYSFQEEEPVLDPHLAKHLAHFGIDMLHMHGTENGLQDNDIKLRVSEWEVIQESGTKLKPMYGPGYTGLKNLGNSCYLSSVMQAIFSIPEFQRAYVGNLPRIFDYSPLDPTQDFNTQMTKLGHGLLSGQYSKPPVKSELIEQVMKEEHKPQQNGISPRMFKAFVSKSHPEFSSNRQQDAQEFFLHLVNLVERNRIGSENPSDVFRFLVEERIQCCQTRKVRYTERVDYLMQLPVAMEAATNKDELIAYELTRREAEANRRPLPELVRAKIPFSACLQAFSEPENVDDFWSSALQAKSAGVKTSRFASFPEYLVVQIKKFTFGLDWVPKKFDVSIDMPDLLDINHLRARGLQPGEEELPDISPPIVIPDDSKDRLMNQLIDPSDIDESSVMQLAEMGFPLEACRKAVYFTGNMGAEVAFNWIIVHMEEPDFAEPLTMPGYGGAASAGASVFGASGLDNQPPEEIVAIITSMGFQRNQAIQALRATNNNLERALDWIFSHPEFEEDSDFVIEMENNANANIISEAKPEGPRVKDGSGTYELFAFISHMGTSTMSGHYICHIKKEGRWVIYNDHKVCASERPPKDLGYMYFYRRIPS
UniProt Q9BRT2, sequence (Q9BRT2 whole entry): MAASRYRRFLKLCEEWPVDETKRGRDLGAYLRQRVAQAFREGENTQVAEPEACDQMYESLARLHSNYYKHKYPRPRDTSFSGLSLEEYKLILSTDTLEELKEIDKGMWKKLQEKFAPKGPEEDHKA
UniProt O14949, sequence (O14949 whole entry): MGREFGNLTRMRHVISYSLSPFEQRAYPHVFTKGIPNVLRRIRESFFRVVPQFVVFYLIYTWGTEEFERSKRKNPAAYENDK
UniProt Q9UDW1, sequence (Q9UDW1 whole entry): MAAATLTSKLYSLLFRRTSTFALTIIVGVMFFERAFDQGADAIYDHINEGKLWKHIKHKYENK

Target | thermal stability z-score [1, 3] | thermal stability z-score ([1]; arsenate co-treatment: none) | thermal stability z-score [2]
UGDH (UniProt O60701) | -0.0997 | 0.267 | 1.03
UGGT1 (UniProt Q9NYU2) | -3.22 | -2.7 | 0.639
UGGT2 (UniProt Q9NYU1) | -1.81 | -1.31 | 0.289
UGP2 (UniProt Q16851) | 0.388 | -0.0879 | 0.872
UGT8 (UniProt Q16880) | 0.0311 | -0.0518 | 0.235
UHRF1 (UniProt Q96T88) | 0.0776 | 0.0619 | -0.766
UHRF1BP1 (UniProt Q6BDS2) | -0.235 | 0.193 | 0.149
UHRF1BP1L (UniProt A0JNW5) | -0.0289 | -0.329 | -0.53
UIMC1 (UniProt Q96RL1) | -0.168 | 0.424 | 0.872
ULK3 (UniProt Q6PHR2) | -0.27 | -0.197 | -0.285
UMPS (UniProt P11172) | 0.111 | 0.297 | -1.02
UNC13B (UniProt O14795) | -0.0346 | -0.119 | -0.156
UNC13D (UniProt Q70J99) | -0.15 | -0.154 | -0.283
UNC45A (UniProt Q9H3U1) | -0.649 | -0.167 | 0.158
UNC93B1 (UniProt Q9H1C4) | 0.172 | -0.000713 | 0.487
UNC119 (UniProt Q13432) | 0.0331 | 0.106 | -0.0734
UNC119B (UniProt A6NIH7) | 1.07 | 0.468 | -0.0898
UNG (UniProt P13051) | -0.772 | -1.08 | -0.665
UNK (UniProt Q9C0B0) | 0.117 | 0.0195 | -0.364
UPF1 (UniProt Q92900) | 0.222 | -0.246 | 0.172
UPF2 (UniProt Q9HAU5) | -0.16 | 0.104 | 0.0278
UPF3B (UniProt Q9BZI7) | -0.0795 | 0.00475 | 0.667
UPP1 (UniProt Q16831) | -0.122 | 0.244 | -0.16
UPRT (UniProt Q96BW1) | -0.0247 | -0.292 | 0.289
UQCC1 (UniProt Q9NVA1) | 0.493 | 0.855 | 1.5
UQCC2 (UniProt Q9BRT2) | 0.0305 | -0.239 | 0.139
UQCR10 (UniProt Q9UDW1) | -0.399 | 0.0606 | 0.553
UQCRB (UniProt P14927) | 0.896 | 0.847 | 0.208

Target | thermal stability z-score [1, 3] | thermal stability z-score ([1]; arsenate co-treatment: none) | thermal stability z-score [2]
UQCRC1 (UniProt P31930) | 1.43 | 0.508 | -1.38
UQCRC2 (UniProt P22695) | 0.268 | -0.0661 | -2.47
UQCRFS1 (UniProt P47985) | 0.00262 | 0.279 | -2.17
UQCRH (UniProt P07919) | 1.35 | 1.45 | 0.58
UQCRQ (UniProt O14949) | 0.971 | 0.797 | 1.28
URGCP (UniProt Q8TCY9) | 0.532 | 0.322 | 1.12
URI1 (UniProt O94763) | -0.325 | -0.193 | 0.52
UROD (UniProt P06132) | 0.0739 | 0.0184 | -0.0518
UROS (UniProt P10746) | -0.306 | -0.445 | -2.43
USE1 (UniProt Q9NZ43) | 0.872 | 0.37 | 1.13
USF1 (UniProt P22415) | 0.0459 | -0.169 | 0.149
USMG5 (UniProt Q96IX5) | 1.21 | 0.486 | 0.215
USO1 (UniProt O60763) | 0.293 | 0.095 | 0.146
USP1 (UniProt O94782) | -0.779 | -0.444 | -0.221
USP3 (UniProt Q9Y6I4) | 0.0204 | 0.0221 | -2.27
USP4 (UniProt Q13107) | -0.209 | -0.11 | -0.141
USP5 (UniProt P45974) | 0.0243 | 0.351 | 0.0981
USP6NL (UniProt Q92738) | 0.194 | -0.0598 | 0.0467
USP7 (UniProt Q93009) | 0.299 | 0.123 | -0.483
USP8 (UniProt P40818) | -0.401 | -0.0464 | 0.561
USP9X (UniProt Q93008) | -0.133 | -0.258 | 0.115
USP10 (UniProt Q14694) | 0.103 | 0.045 | -0.241
USP11 (UniProt P51784) | -0.0801 | -0.162 | 0.143
USP13 (UniProt Q92995) | 0.464 | 0.0604 | -0.0408
USP14 (UniProt P54578) | 0.406 | -0.143 | -0.0718
USP15 (UniProt Q9Y4E8) | 0.00184 | -0.0791 | 0.014
USP16 (UniProt Q9Y5T5) | -0.544 | -0.649 | 0.229
